The source made the active and inactive calls.
Legend:
[1] = target: Photoreceptor-specific nuclear receptor (Homo sapiens, UniProt Q9Y5X4); assay: ligands suppressing NR2E3 nuclear receptor activity – biochemical, TR-FRET, dose response (AID 463256); assay type: functional
[2] = target: Peroxisome proliferator-activated receptor gamma/Nuclear receptor corepressor 2 (Homo sapiens, UniProt P37231+Q9Y618); assay: Counterscreen for NR2E3 inverse agonists: TR-FRET-based biochemical high throughput dose response assay to identify inverse agonists of the interaction between peroxisome proliferator-activated receptor gamma (PPARg) and nuclear receptor co-repressor 2 (NCOR2).; assay type: functional
Peroxisome proliferator-activated receptor gamma/Nuclear receptor corepressor 2, sequence (P37231 whole entry): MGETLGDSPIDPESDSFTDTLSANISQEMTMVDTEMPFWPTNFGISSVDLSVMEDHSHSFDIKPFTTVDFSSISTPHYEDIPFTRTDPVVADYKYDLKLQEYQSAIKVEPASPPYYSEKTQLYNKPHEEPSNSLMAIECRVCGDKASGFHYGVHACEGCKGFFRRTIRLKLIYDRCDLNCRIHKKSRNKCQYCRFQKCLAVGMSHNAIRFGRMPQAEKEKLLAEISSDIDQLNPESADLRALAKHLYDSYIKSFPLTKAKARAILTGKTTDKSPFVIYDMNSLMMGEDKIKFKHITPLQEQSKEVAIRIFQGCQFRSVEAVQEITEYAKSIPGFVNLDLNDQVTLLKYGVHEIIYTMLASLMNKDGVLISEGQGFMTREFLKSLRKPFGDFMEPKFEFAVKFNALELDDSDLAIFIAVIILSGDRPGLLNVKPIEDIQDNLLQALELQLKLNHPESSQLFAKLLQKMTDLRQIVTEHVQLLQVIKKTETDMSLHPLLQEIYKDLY
Peroxisome proliferator-activated receptor gamma/Nuclear receptor corepressor 2, sequence (Q9Y618 whole entry): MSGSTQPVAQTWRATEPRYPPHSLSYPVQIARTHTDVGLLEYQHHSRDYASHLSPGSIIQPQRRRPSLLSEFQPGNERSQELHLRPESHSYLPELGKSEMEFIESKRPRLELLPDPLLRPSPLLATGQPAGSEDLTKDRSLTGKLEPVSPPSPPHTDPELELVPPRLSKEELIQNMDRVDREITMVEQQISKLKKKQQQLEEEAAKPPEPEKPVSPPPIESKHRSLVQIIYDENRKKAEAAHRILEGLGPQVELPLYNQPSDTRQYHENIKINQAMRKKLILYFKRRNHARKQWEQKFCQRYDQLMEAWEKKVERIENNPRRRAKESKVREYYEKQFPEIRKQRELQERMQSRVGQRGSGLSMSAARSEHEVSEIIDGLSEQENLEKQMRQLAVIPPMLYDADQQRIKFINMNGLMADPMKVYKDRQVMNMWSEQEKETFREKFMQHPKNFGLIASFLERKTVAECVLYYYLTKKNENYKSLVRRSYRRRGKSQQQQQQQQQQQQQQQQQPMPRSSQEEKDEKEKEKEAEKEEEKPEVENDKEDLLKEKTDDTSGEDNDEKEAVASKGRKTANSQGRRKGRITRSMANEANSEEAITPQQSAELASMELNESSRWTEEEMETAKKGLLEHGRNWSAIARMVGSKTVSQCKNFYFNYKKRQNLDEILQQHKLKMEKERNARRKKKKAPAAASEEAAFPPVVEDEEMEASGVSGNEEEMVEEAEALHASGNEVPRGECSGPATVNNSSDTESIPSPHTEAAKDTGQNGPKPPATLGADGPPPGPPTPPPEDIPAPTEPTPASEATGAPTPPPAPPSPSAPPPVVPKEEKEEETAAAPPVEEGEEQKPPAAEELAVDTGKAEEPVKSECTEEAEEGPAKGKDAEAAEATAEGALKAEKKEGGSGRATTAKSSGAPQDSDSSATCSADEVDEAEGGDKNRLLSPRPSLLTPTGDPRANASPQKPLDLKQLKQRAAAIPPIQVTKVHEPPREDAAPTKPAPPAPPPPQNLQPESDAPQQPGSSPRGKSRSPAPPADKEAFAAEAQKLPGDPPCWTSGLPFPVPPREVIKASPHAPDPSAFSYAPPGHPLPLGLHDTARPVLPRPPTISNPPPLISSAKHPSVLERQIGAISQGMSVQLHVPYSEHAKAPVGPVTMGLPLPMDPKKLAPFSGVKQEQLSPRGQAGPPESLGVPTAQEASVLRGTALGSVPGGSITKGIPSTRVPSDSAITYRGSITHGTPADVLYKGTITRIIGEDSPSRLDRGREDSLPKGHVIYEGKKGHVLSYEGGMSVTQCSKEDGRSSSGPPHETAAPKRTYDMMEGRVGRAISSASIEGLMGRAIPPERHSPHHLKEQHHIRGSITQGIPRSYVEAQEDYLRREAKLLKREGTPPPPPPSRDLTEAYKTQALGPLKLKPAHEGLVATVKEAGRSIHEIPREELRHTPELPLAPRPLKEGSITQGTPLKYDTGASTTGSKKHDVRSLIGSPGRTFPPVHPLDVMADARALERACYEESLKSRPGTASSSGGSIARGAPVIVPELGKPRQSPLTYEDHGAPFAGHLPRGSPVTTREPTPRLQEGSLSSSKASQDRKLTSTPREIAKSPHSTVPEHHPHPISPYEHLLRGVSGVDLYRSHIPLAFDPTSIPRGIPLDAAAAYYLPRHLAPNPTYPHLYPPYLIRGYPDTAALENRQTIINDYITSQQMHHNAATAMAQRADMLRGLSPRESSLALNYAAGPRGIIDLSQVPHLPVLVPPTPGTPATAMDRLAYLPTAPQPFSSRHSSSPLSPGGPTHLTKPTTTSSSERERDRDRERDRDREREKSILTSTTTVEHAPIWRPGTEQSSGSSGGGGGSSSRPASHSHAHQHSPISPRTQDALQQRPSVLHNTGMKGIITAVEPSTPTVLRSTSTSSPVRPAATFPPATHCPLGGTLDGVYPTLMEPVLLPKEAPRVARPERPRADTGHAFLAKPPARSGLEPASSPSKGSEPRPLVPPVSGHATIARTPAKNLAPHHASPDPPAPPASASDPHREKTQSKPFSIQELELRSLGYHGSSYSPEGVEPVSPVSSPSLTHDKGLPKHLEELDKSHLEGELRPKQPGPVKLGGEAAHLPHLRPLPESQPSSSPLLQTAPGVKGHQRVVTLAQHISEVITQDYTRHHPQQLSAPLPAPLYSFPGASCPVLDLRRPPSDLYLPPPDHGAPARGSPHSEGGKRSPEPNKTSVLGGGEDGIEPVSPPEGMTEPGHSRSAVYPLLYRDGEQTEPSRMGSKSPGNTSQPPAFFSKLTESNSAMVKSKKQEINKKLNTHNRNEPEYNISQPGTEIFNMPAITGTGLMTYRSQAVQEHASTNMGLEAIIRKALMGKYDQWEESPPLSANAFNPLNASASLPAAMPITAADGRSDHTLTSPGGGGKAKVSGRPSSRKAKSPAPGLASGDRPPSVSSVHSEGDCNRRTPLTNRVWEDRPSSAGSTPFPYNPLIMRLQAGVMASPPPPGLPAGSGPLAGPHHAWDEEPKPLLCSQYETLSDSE

Caspase-6 = target: T1, Caspase-6 (Homo sapiens, UniProt P55212); assay: inhibition of CASP6 peptide cleavage – biochemical, VEID-R110 fluorescence, cherry-pick, dose response (AID 720632)
T1 sequence (P55212 whole entry): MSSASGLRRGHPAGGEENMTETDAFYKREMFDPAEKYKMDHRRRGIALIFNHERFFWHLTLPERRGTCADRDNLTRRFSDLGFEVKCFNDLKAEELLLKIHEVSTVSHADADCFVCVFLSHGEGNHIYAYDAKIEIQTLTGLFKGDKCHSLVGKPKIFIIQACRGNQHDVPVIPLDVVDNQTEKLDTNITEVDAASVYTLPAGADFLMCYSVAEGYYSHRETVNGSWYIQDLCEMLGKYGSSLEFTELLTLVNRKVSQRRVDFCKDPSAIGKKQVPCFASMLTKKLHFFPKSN

INS1 = assay: INS-1E survival protection against cytokine death – cell-based, luminescence, retest, dose response (AID 449756); assay type: functional; details: Rattus norvegicus;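 further: cell death triggered by IL-1 beta plus TNF-alpha plus IFN-gamma mixture; protective hits raise ATP signal compared with cytokine alone wells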
Genome polyprotein = Genome polyprotein (Hepatitis C virus, UniProt Q2Q167); assay: disruption of hepatitis C core self-association – biochemical, TR-FRET, dose response (AID 2159); design: species or system Hepacivirus hominis;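 further: blocks dimerization of HCV core protein measured by TR-FRET between tagged core106 pairs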
Genome polyprotein, sequence (Q2Q167 whole entry): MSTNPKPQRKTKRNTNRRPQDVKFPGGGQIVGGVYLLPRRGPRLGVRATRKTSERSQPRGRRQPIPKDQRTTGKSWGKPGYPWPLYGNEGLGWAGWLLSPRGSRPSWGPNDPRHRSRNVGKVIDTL

[3] = target: E3 ubiquitin-protein ligase Mdm2 (Homo sapiens, UniProt Q00987); assay: MDM2-luc reporter signal enhancers, multi-concentration potency testing, MDM2 ubiquitin-protein ligase inhibitor program, whole-cell format, luminescence detection, 384-well microplate (AID 1394); assay type: functional;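 further: MDM2 E3 inhibitors raise luminescence so EC50 is for signal enhancement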
E3 ubiquitin-protein ligase Mdm2, sequence (Q00987 whole entry): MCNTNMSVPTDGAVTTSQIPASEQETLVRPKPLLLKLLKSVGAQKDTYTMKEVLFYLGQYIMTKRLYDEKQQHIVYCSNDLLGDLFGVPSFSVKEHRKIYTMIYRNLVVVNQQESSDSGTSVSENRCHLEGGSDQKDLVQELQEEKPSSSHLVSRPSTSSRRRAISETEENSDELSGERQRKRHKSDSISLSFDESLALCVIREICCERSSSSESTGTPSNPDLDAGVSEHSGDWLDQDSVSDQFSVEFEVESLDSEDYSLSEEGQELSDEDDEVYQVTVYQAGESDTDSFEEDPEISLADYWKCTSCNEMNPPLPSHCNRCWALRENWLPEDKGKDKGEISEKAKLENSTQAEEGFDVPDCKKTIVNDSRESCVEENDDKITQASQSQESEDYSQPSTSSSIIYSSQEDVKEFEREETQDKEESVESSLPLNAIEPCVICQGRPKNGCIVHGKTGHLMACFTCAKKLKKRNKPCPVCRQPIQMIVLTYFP

Bcl-2-related protein A1 [4] = target: T2, Bcl-2-related protein A1 (Mus musculus, UniProt Q07440); assay: small-molecule antagonists of Bfl-1/BH3 interaction – biochemical, TR-FRET, mouse Bfl-1, confirmation (AID 621);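 further: TR-FRET binding of GST-Bfl-1 to FITC-labelled Bid peptide via terbium antibody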
T2 sequence (Q07440 whole entry): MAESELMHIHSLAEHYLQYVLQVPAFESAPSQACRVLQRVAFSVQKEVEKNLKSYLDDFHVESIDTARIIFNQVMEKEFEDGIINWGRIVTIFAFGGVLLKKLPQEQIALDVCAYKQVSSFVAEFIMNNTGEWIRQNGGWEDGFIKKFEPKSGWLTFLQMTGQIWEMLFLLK

Bcl-2-related protein A1 [5] = target: T2, Bcl-2-related protein A1; assay: Bfl-1 binding inhibitors, SAR follow-up, biochemical, fluorescence polarization (AID 1070)
[6] = target: Glyceraldehyde-3-phosphate dehydrogenase (Homo sapiens, UniProt P04406)
Glyceraldehyde-3-phosphate dehydrogenase, sequence (P04406 whole entry): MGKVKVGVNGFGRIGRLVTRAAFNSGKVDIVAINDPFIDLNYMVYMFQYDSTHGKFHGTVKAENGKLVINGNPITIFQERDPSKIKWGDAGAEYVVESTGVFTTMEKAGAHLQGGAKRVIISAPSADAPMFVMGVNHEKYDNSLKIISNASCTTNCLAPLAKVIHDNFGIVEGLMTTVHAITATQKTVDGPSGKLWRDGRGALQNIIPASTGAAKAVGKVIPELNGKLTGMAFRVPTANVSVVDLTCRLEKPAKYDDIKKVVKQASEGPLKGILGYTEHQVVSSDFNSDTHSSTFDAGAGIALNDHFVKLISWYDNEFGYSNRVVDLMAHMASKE

[7] = Luminescence Cell-Based Dose Confirmation HTS to Identify Inhibitors of Polyadenylation.; assay type: functional

Photoreceptor-specific nuclear receptor, sequence (Q9Y5X4 whole entry): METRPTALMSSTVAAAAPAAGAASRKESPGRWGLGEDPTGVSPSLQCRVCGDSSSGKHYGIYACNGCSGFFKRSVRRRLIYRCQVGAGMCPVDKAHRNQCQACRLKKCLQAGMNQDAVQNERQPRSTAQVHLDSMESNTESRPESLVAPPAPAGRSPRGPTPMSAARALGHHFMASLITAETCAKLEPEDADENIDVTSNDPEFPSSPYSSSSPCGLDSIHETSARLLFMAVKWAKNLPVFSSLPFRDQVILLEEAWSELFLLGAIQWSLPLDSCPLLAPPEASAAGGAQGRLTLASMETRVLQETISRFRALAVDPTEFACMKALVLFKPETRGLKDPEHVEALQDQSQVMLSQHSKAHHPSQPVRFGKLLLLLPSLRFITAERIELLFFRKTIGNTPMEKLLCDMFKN

SMILES: COc1ccc2[nH]c(C(=O)Nc3ccc(F)cc3Br)cc2c1
- IC50 [1]: > 39.9 µM (not active)
- IC50 [2]: > 39.9 µM (not active)

SMILES: CC1=NN(c2ccc(C)c(C)c2)C(=O)/C1=C\C=C\c1ccc([N+](=O)[O-])o1
- AC50 (Caspase-6): 1.79 µM (active)
- AC50 (INS1): 4.08 µM (active)
- IC50 (Genome polyprotein): > 49.8 µM (not active)

SMILES: COc1ccc2[nH]c(C(=O)O)c(CCNC(C)=O)c2c1
- EC50 [3]: 0.39 µM (not active)

SMILES: O=C1C(Cl)=C(Cl)C(=O)N1c1ccnc(Cl)c1
- IC50 (Bcl-2-related protein A1 [4]): 39.9 µM (active)
- IC50 (Bcl-2-related protein A1 [5]): > 100 µM (not active)
- IC50 [6]: > 100 µM (not active)

SMILES: COc1ccc(N2CCN(C(=O)c3ccc4c(c3)NC(=O)C(CSCc3ccc(C)cc3)N4)CC2)cc1 (stereo unspecified)
- IC50 (Genome polyprotein): > 49.8 µM (not active)

SMILES: COc1ccc2no[n+]([O-])c2c1
- EC50 [7]: > 120 µM (not active)

SMILES: Cc1cc2c(s1)c1cnn(CC(=O)NCCc3ccccc3)c(=O)c1n2C
- IC50 [1]: 2.52 µM (active)
- IC50 [2]: 2.65 µM (active)

SMILES: CC1CN(C2=C(Cl)C(=O)N(c3ccc(Cl)c(Cl)c3)C2=O)CCN1 (stereo unspecified)
- IC50 (Bcl-2-related protein A1 [4]): 1.95 µM (active)
- IC50 (Bcl-2-related protein A1 [5]): 6.96 µM (active)
- IC50 [6]: > 100 µM (not active)
